From patent US20170205396A1, “SYSTEMS AND METHODS FOR CULTURING NEPHRON PROGENITOR CELLS” (Salk Institute for Biological Studies, priority 2016, published 2017)

What was measured:
nephron organoids = experiment: Mouse nephron organoid generation and chemical treatment; assay type: cell-based
Excerpt: Given kidney's primary function in plasma filtration and metabolic homeostasis, drug-induced nephrotoxicity is common and constitutes a major consideration during the development of new therapeutic drugs. Currently, drug toxicity screening is largely performed using monolayer cultured immortalized kidney cells. Cells in monolayer culture, however, lack an intact 3D nephron structure and are thus limited for accurate prediction of a drug's effect on kidney function. Another layer of complexity during drug screening using immortalized cell lines relates to genetic abnormalities. […] A screen was done to determine conditions that allow efficient organoid generation from srNPCs. […] Committed srNPCs were designated as fate-specified NPCs or FS-NPCs. FS-NPCs could further differentiate autonomously and form nephron organoids marked by numerous tubular formations (FIG. 3B). Whole-mount staining of obtained nephron organoids identified numerous PODXL+/WT1+ glomeruli, LTL+ proximal tubules and CDH1+ distal tubules. The transition from srNPCs via FS-NPCs to nephron organoids was rapid (as short as 7 days), highly efficient and composed of all major nephron segments representing the glomeruli and proximal and distal tubules.
In vivo, NPCs first differentiate to pretubular aggregates (PTA) and renal vesicles (RV) before further maturation to form the segmented renal tubules. To determine which stage FS-NPCs likely correspond to, the expression of common PTA and RV markers was checked. […] Immunofluorescence studies confirmed protein expression of both PTA/RV markers (LHX1 and PAX8) and NPC markers (SIX2 and SALL1) in FS-NPCs.
The utility of srNPC-derived organoids for renal toxicity testing was determined. […]
CD2AP is an important interacting protein for NEPHRIN and PODOCIN and is necessary for proper glomerulus functions and mutations in CD2AP are associated with sporadic nephrotic syndrome and focal segmental glomerulosclerosis (FSGS). […] Consistent with the hypothesis, Cd2ap was expressed in wild type (#2) while barely detected in gene-disrupted (#1 and #3) organoids (FIG. 3E). […]

Six2-GFP+ NPCs = experiment: NPSR-based 3D aggregate culture of primary NPCs (srNPC derivation, long-term expansion, component withdrawal); assay type: cell-based, mouse; conditions: each of six components subtracted, period as short as 4 days
Excerpt: NPCs in mouse first appear around embryonic day 11.5 (E11.5) and mark the onset of nephrogenesis. In mice, NPCs exhaust shortly after birth, around postnatal day 3 (P3), after their last wave of differentiation into nephrons. Lineage tracing experiments have established SIX2 as a specific NPC marker. Available mouse strain with GFP cassette knocked in the Six2 locus (Six2^GCE) facilitates purification of Six2-GFP+ population from embryonic or neonatal mouse kidneys by fluorescence activated cell sorting (FACS). To screen for conditions conducive to in vitro expansion of NPCs Six2-GFP+ cells were isolated from E13.5 embryonic kidneys of Six2^GCE mice. Considering that in vivo NPCs are tightly packed together, it was hypothesized that the cell-cell contact might play a role in their survival and proliferation. Thus, to better preserve the native microenvironment, sorted Six2-GFP+ NPCs were transferred into U-bottom low-attachment 96-well plates to form 3D aggregates. In base medium supplemented with serum alone NPC aggregates could form.
The optimal condition supportive of NPC self-renewal in vitro was determined by screening growth factors and chemical inhibitors for known signaling pathways implicated in regulating NPC survival, self-renewal, and differentiation in vivo as well as other signaling pathways that were not previously reported. Cell viability, growth rate, and GFP signal were considered among other criteria. Through successive testing a novel culture condition was established containing a cocktail of BMP7, FGF2, Heparin, Y27632, LIF, and CHIR99021 that promotes long-term in vitro expansion of Six2-GFP+ NPCs with high purity (it was named NPC self-renewal medium, or NPSR medium) (FIG. 1A). Of note is that isolated Six2+ NPCs have been propagated in this culture for more than one year and more than 70 passages. The established NPC lines were designated as self-renewable NPCs (srNPCs) due to their unlimited proliferative potential. srNPCs grow fast under this culture condition. Starting with 3,000 cells, after 5 days, the aggregate can grow to around 1 mm in diameter containing around 100,000 cells (FIG. 1B and FIG. 1C). srNPC aggregates maintain stable growth rate after long term passages with 6 to 7 doublings per passage (FIG. 1D). […] Moreover, similar results were obtained when SIX2 and other NPC marker gene expressions were quantified by immunostaining: SIX2+ (˜96.2%), SALL1+ (˜99.1%), CITED1+ (˜96.1%) (FIG. 1E). […] To this end each of the six components were subtracted from NPSR medium and evaluated the effects on srNPCs.
It was determined whether NPSR culture could also support the derivation of srNPCs from other developmental stages harboring Six2+ populations. […]

In the case of lipopolysaccharide [LPS], the “glomerulus injury in nephron organoids (morphology, active Caspase 3)” value (nephron organoids; 20 μg/ml, two-day exposure, day 7 organoids) is reported as “specific damages in the glomerulus” and the “apoptotic cells (active Caspase 3) in Cd2ap-deficient versus wild type organoids” value (nephron organoids; low dosage 10 μg/ml, two days, tetO srNPC lines) is reported as “accumulated more apoptotic cells than the wild type”.
For `C[C@H](NC(=O)Cc1cc(F)cc(F)c1)C(=O)N[C@H](C(=O)OC(C)(C)C)c1ccccc1` [DAPT], the “effect on proximal tubule and glomerulus differentiation” value (nephron organoids; 5 μM, day 2 to day? (FS-NPCs to nephron organoids)) was “both proximal tubules and glomerulus differentiation were inhibited”.
`C[C@@H](N)[C@H]1CC[C@H](C(=O)Nc2ccncc2)CC1` [Y27632] was tested, and the “effect of removal of the component from NPSR medium on srNPCs” value (shortened to “effect of removal of the component”) (Six2-GFP+ NPCs) was “slower cell growth”.
In the case of Heparin, the “effect of removal of the component” value (Six2-GFP+ NPCs) is reported as “slower cell growth”.
“LIF: leukemia inhibitory factor protein, an interleukin 6 class cytokine” was tested, and the “effect of removal of the component” value (Six2-GFP+ NPCs) was “loss of GFP signal”.
With “FGF2: fibroblast growth factor, NPSR medium component” the “effect of removal of the component” value (Six2-GFP+ NPCs) was “slower cell growth”.
